Assay [1] has as its system H292 cells. In words: MTT cell viability assay (cytotoxicity). The note with it: read-out: IC50 ± SD H292. The class given is cell-based, human. The method, then:
(§1) NSCLCs H292 and H460 were treated with various concentrations of derivatives of the RT right-half analog for 24 h. […] However, the IC50 values for DH_17, DH_20, DH_23, and DH_26 in H460 cells were greater than 100 μM. TM-(−)-18 was identified as a potent compound in a previous study. The structure of TM-(−)-18 was present in Figure 1A. […] To assess the selectivity of DH_28, DH_30, DH_31, and TM-(−)-18 in lung cancer cells, non-tumorigenic epithelial cell lines derived from human bronchial epithelial cells (BEAS-2B) were treated with DH_28, DH_30, DH_31, and TM-(−)-18 at various concentrations for 24 h.
(§2) MTT assay was conducted to ascertain cell viability in the presence of DH_17, DH_20, DH_23, DH_26, DH_28, DH_30, DH_31, or TM-(–)-18. H292 and H460 cells (1.0 × 10^4 cells per well) were seeded in 96-well plates. Following overnight incubation, the cells were treated with different concentrations of RT right–half analogs (0–100 μM) for 24 h at 37 °C. Subsequently, cell viability was assessed using MTT assay, following the manufacturers’ protocols. The optical density was measured at 570 nm using a CLARIOStar microplate reader (BMG Labtech, Ortenberg, Germany).
(Tetrazolium dyes change colour on reduction, which living cells bring about.)

For assay [2], the system named is H460 cells. Briefly: MTT cell viability assay (cytotoxicity). In kind it is cell-based, human. The following applies: read-out: IC50 ± SD H460. On the procedure:
as §1, §2

Assay [3] deals with BEAS-2B cells. Briefly: MTT assay in non-tumorigenic bronchial epithelial cells (selectivity). The class given is cell-based. The note with it: Homo sapiens, 24 h, read-out: BEAS-2B IC50 ± SD. On the procedure: as §1
Figure 2 The effect of RT right-half analogs on cytotoxicity in NSCLC and human normal lung epithelial (BEAS-2B) cell lines and apoptotic cell death in NSCLC cells. (A) NSCLC H292 and H460 cells were treated with derivatives of RT right-half analogs for 24 h and analyzed using MTT assay to assess cytotoxicity. (B) IC50 values for H292 and H460 cell lines were calculated. (C) BEAS-2B cells were treated with DH_28, DH_30, DH_31, and TM-(−)-18 for 24 h. The cytotoxic effects were evaluated using an MTT assay, and the IC50 values for BEAS-2B cells were determined. (D) H292 and H460 cells were seeded and treated with 0–10 μM of DH_28, DH_30, and DH_31 for 24 h. Hoechst 33342 and PI were used to stain the cell nuclei. Images were obtained under a fluorescence microscope. (E) The percentages of cell death were calculated based on the stained images in H292 and H460 cells. […] TEXT PRINTED IN THE PICTURE: (B) DH_17: IC50 ± SD (μM) H292: 20.50 ± 3.69; IC50 ± SD (μM) H460: > 100 | (B) DH_20: IC50 ± SD (μM) H292: 21.46 ± 3.77; IC50 ± SD (μM) H460: > 100 | (B) DH_23: IC50 ± SD (μM) H292: 17.50 ± 3.08; IC50 ± SD (μM) H460: > 100 | (B) DH_26: IC50 ± SD (μM) H292: 7.18 ± 2.39; IC50 ± SD (μM) H460: > 100 | (B) DH_28: IC50 ± SD (μM) H292: 9.56 ± 1.87; IC50 ± SD (μM) H460: 11.48 ± 1.87 | (B) DH_30: IC50 ± SD (μM) H292: 7.80 ± 2.30; IC50 ± SD (μM) H460: 4.51 ± 0.78 | (B) DH_31: IC50 ± SD (μM) H292: 5.54 ± 1.04; IC50 ± SD (μM) H460: 2.90 ± 0.58 | (B) TM-(–)-18: IC50 ± SD (μM) H292: > 100; IC50 ± SD (μM) H460: 7.89 ± 1.27 | (C) DH_28: BEAS-2B IC50 ± SD (μM): 16.46 ± 2.11 | (C) DH_30: BEAS-2B IC50 ± SD (μM): 5.50 ± 1.70 | (C) DH_31: BEAS-2B IC50 ± SD (μM): 6.51 ± 1.40 | (C) TM-(–)-18: BEAS-2B IC50 ± SD (μM): 7.25 ± 1.25 DOUBTS OF THE COPYIST ABOUT THIS PICTURE: Panel C, DH_28, IC50: small print, 16.46 ± 2.11 is the best reading; 6 could be 8 / Panel C, DH_30, IC50: small print, 5.50 ± 1.70 is the best reading; 5 could be 6 / Panel C, DH_31, IC50: small print, 6.51 ± 1.40 is the best reading; 6 could be 8 or 5 / Panel C, TM-(–)-18, IC50: small print, 7.25 ± 1.25 is the best reading

Assay [4] relates to H292 cells. The class given is cell-based. The note with it: H292, 10 µM; for apoptosis: 24 h; for necrosis: 24 h (p < 0.001). The method, then:
(§3) Apoptosis is a crucial mechanism of cell death induced by anticancer drugs. We further analyzed the apoptosis induction effect of the potent small molecules, namely DH_28, DH_30, and DH_31. Nuclear morphology detected by the staining with nucleus-specific fluorescence dye Hoechst 33342 and cell-impermeable PI for necrotic detection was performed. Morphologic changes by means of condensed and/or fragmented nuclei were observed after 24 h of treatment (Figure 2D). […] Therefore, DH_31 was selected for further experiments.
(§4) Figure 2 The effect of RT right-half analogs on cytotoxicity in NSCLC and human normal lung epithelial (BEAS-2B) cell lines and apoptotic cell death in NSCLC cells. (A) NSCLC H292 and H460 cells were treated with derivatives of RT right-half analogs for 24 h and analyzed using MTT assay to assess cytotoxicity. (B) IC50 values for H292 and H460 cell lines were calculated. (C) BEAS-2B cells were treated with DH_28, DH_30, DH_31, and TM-(−)-18 for 24 h. The cytotoxic effects were evaluated using an MTT assay, and the IC50 values for BEAS-2B cells were determined. (D) H292 and H460 cells were seeded and treated with 0–10 μM of DH_28, DH_30, and DH_31 for 24 h. Hoechst 33342 and PI were used to stain the cell nuclei. Images were obtained under a fluorescence microscope. (E) The percentages of cell death were calculated based on the stained images in H292 and H460 cells. Data represent the mean ± SD (n = 3). *, **, and *** indicate a statistically significant difference between the treated and the untreated cells at p < 0.05, p < 0.01, and p < 0.001, respectively. TEXT PRINTED IN THE PICTURE: (B) DH_17: IC50 ± SD (μM) H292: 20.50 ± 3.69; IC50 ± SD (μM) H460: > 100 | (B) DH_20: IC50 ± SD (μM) H292: 21.46 ± 3.77; IC50 ± SD (μM) H460: > 100 | (B) DH_23: IC50 ± SD (μM) H292: 17.50 ± 3.08; IC50 ± SD (μM) H460: > 100 | (B) DH_26: IC50 ± SD (μM) H292: 7.18 ± 2.39; IC50 ± SD (μM) H460: > 100 | (B) DH_28: IC50 ± SD (μM) H292: 9.56 ± 1.87; IC50 ± SD (μM) H460: 11.48 ± 1.87 | (B) DH_30: IC50 ± SD (μM) H292: 7.80 ± 2.30; IC50 ± SD (μM) H460: 4.51 ± 0.78 | (B) DH_31: IC50 ± SD (μM) H292: 5.54 ± 1.04; IC50 ± SD (μM) H460: 2.90 ± 0.58 | (B) TM-(–)-18: IC50 ± SD (μM) H292: > 100; IC50 ± SD (μM) H460: 7.89 ± 1.27 | (C) DH_28: BEAS-2B IC50 ± SD (μM): 16.46 ± 2.11 | (C) DH_30: BEAS-2B IC50 ± SD (μM): 5.50 ± 1.70 | (C) DH_31: BEAS-2B IC50 ± SD (μM): 6.51 ± 1.40 | (C) TM-(–)-18: BEAS-2B IC50 ± SD (μM): 7.25 ± 1.25 DOUBTS OF THE COPYIST ABOUT THIS PICTURE: Panel C, DH_28, IC50: small print, 16.46 ± 2.11 is the best reading; 6 could be 8 / Panel C, DH_30, IC50: small print, 5.50 ± 1.70 is the best reading; 5 could be 6 / Panel C, DH_31, IC50: small print, 6.51 ± 1.40 is the best reading; 6 could be 8 or 5 / Panel C, TM-(–)-18, IC50: small print, 7.25 ± 1.25 is the best reading

Assay [5] relates to H460 cells. The class given is cell-based. The following applies: H460, 10 µM, 24 h. The method, then: as §3, §4
Assay [6] addresses T1, STAT3 (Homo sapiens, UniProt P40763).
T1 construct: endogenous in cells; host or cells: NCI-H460 (ATCC HTB-177)
Briefly: STAT3 proteasomal degradation, Western blot with or without MG132. In kind it is cell-based. On the procedure:
To explore whether the reduction in total STAT3 protein after DH_31 treatments (as shown in Figure 5B–E) occurs at the mRNA or protein levels, we first investigated mRNA levels using Real-time qPCR. […] To evaluate whether DH_31 affects STAT3 stability, pretreatment with MG132, a potent selective proteasome inhibitor, was performed. H460 cells were pretreated with or without MG132 (10 μM) for 1 h and then cells were either treated with DH_31 for 6 h or left untreated. […] The proteasome can recognize and degrade protein targets that are conjugated by single or poly-ubiquitin molecules. To investigate the ubiquitination level of STAT3 with DH_31 treatments, the ubiquitination level was evaluated using immunoprecipitation and Western blot analysis of the STAT3–ubiquitin complex in the lung cancer cells treated with DH_31 and in untreated cells.
Immunoprecipitation assay was performed to investigate ubiquitin–proteasomal degradation, shedding light on the regulatory mechanisms involved. H460 cells (4.0 × 10^5 cells per well) were seeded in 6-well plates. Following overnight incubation, the cells were pretreated with 10 μM of a proteasome inhibitor, MG132, for 1 h to prevent proteasomal degradation, and then were treated with different concentrations of DH_31 (0–2.5 μM) for 6 h. After treatment, the cells were lysed as described above. Immunoprecipitation was carried out using the Dynabeads™ Protein G Immunoprecipitation kit, following the manufacturers’ protocols. The magnetic beads were coated with the rabbit anti-STAT3, then incubated with whole-cell lysate and mixed gently overnight at 4 °C. After washing, the supernatant containing the antibody–antigen complex was used to perform Western blot analysis to detect the ubiquitinated STAT3 protein.
(In general: Immunoblotting shows a protein as a band on a membrane.)

In assay [7] the test system is B16F10 cells. Also noted: method as in PMID 36014573. The note with it: B16F10 cells induced by the RAW264.7 supernatant; cited from earlier work.
On the set-up of assay [8]: method as in PMID 32260280. The following applies: concentration-dependent manner; cited from earlier work.

The text below walks through data of paper PMC11355573, “A New Renieramycin T Right-Half Analog as a Small Molecule Degrader of STAT3” (Marine Drugs, 2024).

Like-named read-outs stand apart in the source and are kept apart here. Residues, ends and D or L forms follow the SMILES beside them. *: point of attachment. Cbz = O=C(OCc1ccccc1)*

T1 sequence (P40763 whole entry): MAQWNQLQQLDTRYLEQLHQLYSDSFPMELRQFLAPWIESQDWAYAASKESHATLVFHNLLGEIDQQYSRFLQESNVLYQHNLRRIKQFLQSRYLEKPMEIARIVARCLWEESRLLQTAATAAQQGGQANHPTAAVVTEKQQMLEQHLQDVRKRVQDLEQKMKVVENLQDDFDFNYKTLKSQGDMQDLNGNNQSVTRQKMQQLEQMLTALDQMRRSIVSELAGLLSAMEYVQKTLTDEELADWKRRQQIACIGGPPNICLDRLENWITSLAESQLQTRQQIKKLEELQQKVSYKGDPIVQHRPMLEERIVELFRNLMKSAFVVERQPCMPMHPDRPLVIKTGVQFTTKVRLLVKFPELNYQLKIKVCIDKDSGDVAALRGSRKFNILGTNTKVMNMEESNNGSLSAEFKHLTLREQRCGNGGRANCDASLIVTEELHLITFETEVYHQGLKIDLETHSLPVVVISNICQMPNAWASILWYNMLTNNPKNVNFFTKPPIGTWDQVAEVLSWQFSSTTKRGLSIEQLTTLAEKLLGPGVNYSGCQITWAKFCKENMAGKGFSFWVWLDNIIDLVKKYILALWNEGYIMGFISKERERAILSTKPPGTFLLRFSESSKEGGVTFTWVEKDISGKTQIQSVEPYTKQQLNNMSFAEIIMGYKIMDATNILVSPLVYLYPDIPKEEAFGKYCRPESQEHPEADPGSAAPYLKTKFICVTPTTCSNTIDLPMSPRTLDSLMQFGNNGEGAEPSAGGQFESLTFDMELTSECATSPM

By IC50 is commonly meant the concentration needed to halve the response being measured. As to `COc1c(C)cc2c(c1O)[C@@H]1CN(Cc3cccc4ccccc34)[C@@H](C#N)[C@H](C2)N1C` [DH_28, (1R,4R,5S)-10-hydroxy-9-methoxy-8,11-dimethyl-3-(naphthalen-1-ylmethyl)-1,2,3,4,5,6-hexahydro-1,5-epiminobenzo[d]azocine-4-carbonitrile], the IC50 is < 15 µM in assay [1] (24 h); 9.56 ± 1.87 µM in assay [1] (Homo sapiens, NCI-H292, 24 h); < 15 µM in assay [2] (24 h); 11.5 ± 1.87 µM in assay [2] (Homo sapiens, NCI-H460, 24 h); 16.5 ± 2.11 µM in assay [3]. The apoptosis result in assay [4] was “significant apoptosis”. Also, the values for the necrosis entry in assay [4] and in assay [5] were “Necrosis was detected” and “significant necrosis”, respectively. Further, the apoptotic cell death entry in assay [5] is “significant apoptotic cell death”.

`COc1c(C)cc2c(c1OCc1ccccc1)[C@@H]1CN(Cc3ccc4ccccc4c3)[C@@H](C#N)[C@H](C2)N1C` [DH_30, (1R,4R,5S)-10-(benzyloxy)-9-methoxy-8,11-dimethyl-3-(naphthalen-2-ylmethyl)-1,2,3,4,5,6-hexahydro-1,5-epiminobenzo[d]azocine-4-carbonitrile]: the concentration for half-maximal inhibition (IC50) in assay [1] (24 h) is < 15 µM; in assay [1] (Homo sapiens, NCI-H292, 24 h) it was 7.8 ± 2.3 µM; in assay [3] it was 5.5 ± 1.7 µM. For the same molecule, the apoptosis result in assay [4] is reported as “significant apoptosis”. Besides, the necrosis entry in assay [4] is “Necrosis was detected”; in assay [5], “significant necrosis”. For the same molecule, in assay [5], the apoptotic cell death result was “significant apoptotic cell death”.

Regarding `CC(C)C[C@@H](C=O)NC(=O)[C@H](CC(C)C)NC(=O)[C@H](CC(C)C)NC(=O)OCc1ccccc1` [MG132] (Cbz-Leu-Leu-Leu-aldehyde), the “effect on DH_31-induced STAT3 downregulation” value in assay [6] (H460, MG132 10 μM 1 h pretreatment, then DH_31 0, 1, 2.5 µM 6 h) was “significantly reversed”. Further, the STAT3 level result in assay [6] (H460, MG132 10 μM pretreatment, all DH_31 concentrations) was “drastically increased”.

As for `CC=C(C)C(=O)OCC1c2c(c(O)c(C)c3c2OCO3)CC2C3C4=C(CC(C(C#N)N12)N3C)C(=O)C(C)=C(OC)C4=O` (stereo not shown) [RT, Renieramycin T], in assay [7], the STAT3 expression entry is listed as “reduced”; the “Twist, Snail, Vimentin, and N-cadherin expression” value is reported as “reduced”; the migration ability entry is “reduced”.

As for `COc1c(C)cc2c(c1O)C1CN(Cc3ccccc3)C(C#N)C(C2)N1C` (stereo not drawn) [TM-(−)-18, reference compound], the IC50 was > 100 µM in assay [1] (Homo sapiens, NCI-H292, 24 h); 7.89 ± 1.27 µM in assay [2] (Homo sapiens, NCI-H460, 24 h); 7.25 ± 1.25 µM in assay [3]. The apoptosis entry in assay [8] is on record as “increased”.
